{"source": "patent US20250009713A1", "about": "(priority 2021, published 2025)", "type_in_all_cases": "cell-based", "key": {"[1]": {"tested_on": "SARS-COV-2 US-PHC658/2021 (delta variant; NR-55611)", "test": "microbe, parasite or virus in culture", "conditions": "PCR, Calu-3, virus Delta"}, "[2]": {"tested_on": "SARS-COV-2 USA/MD-HP20874/2021 (omicron variant; NR-56461)", "test": "microbe, parasite or virus in culture", "conditions": "PCR, Calu-3, virus Omicron"}, "[3]": {"tested_on": "SARS-COV-2 SouthAfrica/KRISP-K005325/2020 (beta variant; NR-54009)", "test": "microbe, parasite or virus in culture", "conditions": "PCR, Calu-3, virus SA"}, "[4]": {"tested_on": "SARS-COV-2 England/204820464/2020 (alpha variant; NR-54000)", "test": "microbe, parasite or virus in culture", "conditions": "PCR, Calu-3, virus UK"}, "[5]": {"tested_on": "SARS-COV-2 US-PHC658/2021 (delta variant; NR-55611)", "test": "microbe, parasite or virus in culture", "conditions": "PCR, Vero, virus Delta"}, "[6]": {"tested_on": "SARS-COV-2 USA/MD-HP20874/2021 (omicron variant; NR-56461)", "test": "microbe, parasite or virus in culture", "conditions": "PCR, Vero, virus Omicron"}, "[7]": {"tested_on": "SARS-COV-2 SouthAfrica/KRISP-K005325/2020 (beta variant; NR-54009)", "test": "microbe, parasite or virus in culture"}, "[8]": {"tested_on": "SARS-COV-2 England/204820464/2020 (alpha variant; NR-54000)", "test": "microbe, parasite or virus in culture"}, "[9]": {"tested_on": "SARS-COV-2 US-PHC658/2021 (delta variant; NR-55611)", "test": "microbe, parasite or virus in culture", "conditions": "Plaque, Calu-3, virus Delta"}, "[10]": {"tested_on": "SARS-COV-2 USA/MD-HP20874/2021 (omicron variant; NR-56461)", "test": "microbe, parasite or virus in culture", "conditions": "Plaque, Calu-3, virus Omicron"}, "[11]": {"tested_on": "SARS-COV-2 SouthAfrica/KRISP-K005325/2020 (beta variant; NR-54009)", "test": "microbe, parasite or virus in culture", "conditions": "Plaque, Calu-3, virus SA"}, "[12]": {"tested_on": "SARS-COV-2 England/204820464/2020 (alpha variant; NR-54000)", "test": "microbe, parasite or virus in culture", "conditions": "Plaque, Calu-3, virus UK"}, "[13]": {"tested_on": "SARS-COV-2 US-PHC658/2021 (delta variant; NR-55611)", "test": "microbe, parasite or virus in culture", "conditions": "Plaque, Vero, virus Delta"}, "[14]": {"tested_on": "SARS-COV-2 USA/MD-HP20874/2021 (omicron variant; NR-56461)", "test": "microbe, parasite or virus in culture", "conditions": "Plaque, Vero, virus Omicron"}, "[15]": {"tested_on": "SARS-COV-2 SouthAfrica/KRISP-K005325/2020 (beta variant; NR-54009)", "test": "microbe, parasite or virus in culture", "conditions": "Plaque, Vero, virus SA"}, "[16]": {"tested_on": "SARS-COV-2 England/204820464/2020 (alpha variant; NR-54000)", "test": "microbe, parasite or virus in culture", "conditions": "Plaque, Vero, virus UK"}, "[17]": {"tested_on": "SARS-COV-2 strain US (US-WA1/2020)", "test": "plaque assay, strain US, summary over cell types", "conditions": "Severe acute respiratory syndrome coronavirus 2, two-way ANOVA estimate"}, "[18]": {"conditions": "Severe acute respiratory syndrome coronavirus 2, m.o.i 0.1, […]"}, "[19]": {"conditions": "PCR, Vero, virus SA, log-logistic curve fit"}, "[20]": {"conditions": "Severe acute respiratory syndrome coronavirus 2, Vero"}, "[21]": {"conditions": "PCR, Vero, virus UK, log-logistic curve fit"}}}
{"smiles": "Cn1cc(-c2cccc3cc(C(=O)NC(=N)N)ccc23)cn1", "note": "[BIT225, N-carbamimidoyl-5-(1-methyl-1H-pyrazol-4-yl)-2-naphthamide]", "values": [{"measurement": "Max. Response (d)", "setting": "[1]; log-logistic curve fit", "value": 2.56, "unit": "log10"}, {"measurement": "Slope (b)", "setting": "[1]; log-logistic curve fit", "value": 1.08, "unit": "nmol⁻¹"}, {"measurement": "EC50", "setting": "[1]; [18]", "value": 4.81, "unit": "µM"}, {"measurement": "Max. Response (d)", "setting": "[2]; log-logistic curve fit", "value": 2.57, "unit": "log10"}, {"measurement": "Slope (b)", "setting": "[2]; log-logistic curve fit", "value": 1.08, "unit": "nmol⁻¹"}, {"measurement": "EC50", "setting": "[2]; [18]", "value": 4.37, "unit": "µM"}, {"measurement": "Max. Response (d)", "setting": "[3]; log-logistic curve fit", "value": 2.67, "unit": "log10"}, {"measurement": "Slope (b)", "setting": "[3]; log-logistic curve fit", "value": 1.07, "unit": "nmol⁻¹"}, {"measurement": "EC50", "setting": "[3]; [18]", "value": 4.17, "unit": "µM"}, {"measurement": "Max. Response (d)", "setting": "[4]; log-logistic curve fit", "value": 2.58, "unit": "log10"}, {"measurement": "Slope (b)", "setting": "[4]; log-logistic curve fit", "value": 1.21, "unit": "nmol⁻¹"}, {"measurement": "EC50", "setting": "[4]; [18]", "value": 2.86, "unit": "µM"}, {"measurement": "Max. Response (d)", "setting": "[5]; log-logistic curve fit", "value": 3.55, "unit": "log10"}, {"measurement": "Slope (b)", "setting": "[5]; log-logistic curve fit", "value": 1.15, "unit": "nmol⁻¹"}, {"measurement": "EC50", "setting": "[5]; [18]", "value": 3.59, "unit": "µM"}, {"measurement": "Max. Response (d)", "setting": "[6]; log-logistic curve fit", "value": 3.51, "unit": "log10"}, {"measurement": "Slope (b)", "setting": "[6]; log-logistic curve fit", "value": 1.22, "unit": "nmol⁻¹"}, {"measurement": "EC50", "setting": "[6]; [18]", "value": 3.37, "unit": "µM"}, {"measurement": "Max. Response (d)", "setting": "[7]; [19]", "value": 3.52, "unit": "log10"}, {"measurement": "Slope (b)", "setting": "[7]; [19]", "value": 1.28, "unit": "nmol⁻¹"}, {"measurement": "EC50", "setting": "[7]; [20]", "value": 2.65, "unit": "µM"}, {"measurement": "Max. Response (d)", "setting": "[8]; [21]", "value": 3.58, "unit": "log10"}, {"measurement": "Slope (b)", "setting": "[8]; [21]", "value": 1.07, "unit": "nmol⁻¹"}, {"measurement": "EC50", "setting": "[8]; [20]", "value": 4.56, "unit": "µM"}, {"measurement": "Max. Response (d)", "setting": "[9]; log-logistic curve fit", "value": 3.44, "unit": "log10"}, {"measurement": "Slope (b)", "setting": "[9]; log-logistic curve fit", "value": 1.00, "unit": "nmol⁻¹"}, {"measurement": "EC50", "setting": "[9]; [18]", "value": 7.9, "unit": "µM"}, {"measurement": "Max. Response (d)", "setting": "[10]; log-logistic curve fit", "value": 3.42, "unit": "log10"}, {"measurement": "Slope (b)", "setting": "[10]; log-logistic curve fit", "value": 1.11, "unit": "nmol⁻¹"}, {"measurement": "EC50", "setting": "[10]; [18]", "value": 7.61, "unit": "µM"}, {"measurement": "Max. Response (d)", "setting": "[11]; log-logistic curve fit", "value": 3.52, "unit": "log10"}, {"measurement": "Slope (b)", "setting": "[11]; log-logistic curve fit", "value": 1.34, "unit": "nmol⁻¹"}, {"measurement": "EC50", "setting": "[11]; [18]", "value": 6.79, "unit": "µM"}, {"measurement": "Max. Response (d)", "setting": "[12]; log-logistic curve fit", "value": 3.43, "unit": "log10"}, {"measurement": "Slope (b)", "setting": "[12]; log-logistic curve fit", "value": 1.15, "unit": "nmol⁻¹"}, {"measurement": "EC50", "setting": "[12]; [18]", "value": 5.72, "unit": "µM"}, {"measurement": "Max. Response (d)", "setting": "[13]; log-logistic curve fit", "value": 6.45, "unit": "log10"}, {"measurement": "Slope (b)", "setting": "[13]; log-logistic curve fit", "value": 1.48, "unit": "nmol⁻¹"}, {"measurement": "EC50", "setting": "[13]; [18]", "value": 6.65, "unit": "µM"}, {"measurement": "Max. Response (d)", "setting": "[14]; log-logistic curve fit", "value": 6.31, "unit": "log10"}, {"measurement": "Slope (b)", "setting": "[14]; log-logistic curve fit", "value": 1.41, "unit": "nmol⁻¹"}, {"measurement": "EC50", "setting": "[14]; [18]", "value": 6.5, "unit": "µM"}, {"measurement": "Slope (b)", "setting": "[15]; log-logistic curve fit", "value": 1.50, "unit": "nmol⁻¹"}, {"measurement": "EC50", "setting": "[15]; [18]", "value": 7.26, "unit": "µM"}, {"measurement": "Max. Response (d)", "setting": "[16]; log-logistic curve fit", "value": 6.41, "unit": "log10"}, {"measurement": "EC50", "setting": "[16]; [18]", "value": 6.7, "unit": "µM"}, {"measurement": "EC50", "setting": "[17]", "value": 3.8, "unit": "µM"}]}
